# Assay results from US8916702B2 (priority 2012, dated 2014).
# pEC50: −log10 of the molar value.
# System: HCV pseudoparticles (genotype 1a HCV E1 and E2 envelope, H77C isolate)
# Experiment: microbe, parasite or virus in culture
# Format: cell-based
# Details: Hepatitis C virus, Huh-7, 48 h, HCV pseudoparticles (genotype 1a, H77C) in Huh7 cells; average of duplicate; luciferase 2 days after infection
row,Structure (SMILES),pEC50
1,COC(=O)[C@H](CCNC(=O)C(=O)Nc1ccc(-n2ccnc2C)cc1)NC(=O)c1ccc(Nc2nc(NC3(c4ccc(Cl)cc4)CC3)nc(OCC(F)(F)F)n2)cc1 [Compound 3320],8.06
2,COC(=O)[C@H](CCNC(=O)C(=O)Nc1ccc(OC2CCOCC2)cc1)NC(=O)c1ccc(Nc2nc(NC3(c4ccc(Cl)cc4)CC3)nc(OCC(F)(F)F)n2)cc1 [Compound 3325],8.62
3,Cc1cc(NC(=O)C(=O)NCC(C)CNC(=O)c2ccc(Nc3nc(NC4(c5ccc(Cl)cc5)CC4)nc(OCC(F)(F)F)n3)cc2)no1 (stereo not shown) [Compound 3334],10.21
4,CC1CC(=O)c2ccc(NC(=O)C(=O)NCC(C)(C)CNC(=O)c3ccc(Nc4nc(NC5(c6ccc(Cl)cc6)CC5)nc(OCC(F)(F)F)n4)cc3)cc2O1 (stereo not shown) [Compound 3336],10.05
5,CC(CNC(=O)C(=O)NCc1ccc(F)cc1)CNC(=O)c1ccc(Nc2nc(NC3(c4ccc(Cl)cc4)CC3)nc(OCC(F)(F)F)n2)cc1 (stereo not shown) [Compound 3346],10.17
6,O=C(NCCCNC(=O)c1ccc(Nc2nc(NC3(c4ccc(Cl)cc4)CC3)nc(OCC(F)(F)F)n2)cc1)C(=O)Nc1cccc(F)c1 [Compound 3349],10.39
7,Cc1ccc(NC(=O)C(=O)NCCCNC(=O)c2ccc(Nc3nc(NC4(c5ccc(Cl)cc5)CC4)nc(OCC(F)(F)F)n3)cc2)cc1 [Compound 3358],10.47
8,CC(C)(CNC(=O)C(=O)Nc1ccc(CCCC(=O)O)cc1)CNC(=O)c1ccc(Nc2nc(NC3(c4ccc(Cl)cc4)CC3)nc(OCC(F)(F)F)n2)cc1 [Compound 3361],9.80
9,O=C(NCC(O)CNC(=O)c1ccc(Nc2nc(NC3(c4ccc(Cl)cc4)CC3)nc(OCC(F)(F)F)n2)cc1)C(=O)Nc1ccc(F)cc1 (stereo not shown) [Compound 3365],10.62
10,COc1ncccc1NC(=O)C(=O)NCC(C)(C)CNC(=O)c1ccc(Nc2nc(NC3(c4ccc(Cl)cc4)CC3)nc(OCC(F)(F)F)n2)cc1 [Compound 3366],9.85

# Same assay, conditions: Hepatitis C virus, Huh-7, read-out: Activity (EC50 class), HCV pseudoparticles (genotype 1a, H77C) in Huh7 cells; EC50 expressed as class A/B
row,Structure (SMILES),pEC50
1,COC(=O)[C@H](CCNC(=O)C(=O)Nc1ccc(-c2nncn2C)cc1)NC(=O)c1ccc(Nc2nc(NC3(c4ccc(Cl)cc4)CC3)nc(OCC(F)(F)F)n2)cc1 [Compound 3317],8.00 to 11.00
2,COC(=O)[C@H](CCNC(=O)C(=O)Nc1ccc(-c2csc(N3CCOCC3)n2)cc1)NC(=O)c1ccc(Nc2nc(NC3(c4ccc(Cl)cc4)CC3)nc(OCC(F)(F)F)n2)cc1 [Compound 3318],8.00 to 11.00
3,COC(=O)[C@H](CCNC(=O)C(=O)Nc1ccc(Cn2ccnc2)cc1)NC(=O)c1ccc(Nc2nc(NC3(c4ccc(Cl)cc4)CC3)nc(OCC(F)(F)F)n2)cc1 [Compound 3319],8.00 to 11.00
4,COC(=O)[C@H](CCNC(=O)C(=O)Nc1ccc(-n2ccnc2C)cc1)NC(=O)c1ccc(Nc2nc(NC3(c4ccc(Cl)cc4)CC3)nc(OCC(F)(F)F)n2)cc1 [Compound 3320],8.00 to 11.00
5,COC(=O)[C@H](CCNC(=O)C(=O)Nc1ccc(Cn2ccnc2C)cc1)NC(=O)c1ccc(Nc2nc(NC3(c4ccc(Cl)cc4)CC3)nc(OCC(F)(F)F)n2)cc1 [Compound 3321],6.00 to 8.00
6,COCc1ccc(NC(=O)C(=O)NCC[C@H](NC(=O)c2ccc(Nc3nc(NC4(c5ccc(Cl)cc5)CC4)nc(OCC(F)(F)F)n3)cc2)C(=O)OC)cc1 [Compound 3322],8.00 to 11.00
7,COC(=O)[C@H](CCNC(=O)C(=O)Nc1ccc(Oc2ccncc2)cc1)NC(=O)c1ccc(Nc2nc(NC3(c4ccc(Cl)cc4)CC3)nc(OCC(F)(F)F)n2)cc1 [Compound 3323],8.00 to 11.00
8,COC(=O)[C@H](CCNC(=O)C(=O)Nc1ccc(Oc2cccnc2)cc1)NC(=O)c1ccc(Nc2nc(NC3(c4ccc(Cl)cc4)CC3)nc(OCC(F)(F)F)n2)cc1 [Compound 3324],8.00 to 11.00
9,COC(=O)[C@H](CCNC(=O)C(=O)Nc1ccc(OC2CCOCC2)cc1)NC(=O)c1ccc(Nc2nc(NC3(c4ccc(Cl)cc4)CC3)nc(OCC(F)(F)F)n2)cc1 [Compound 3325],8.00 to 11.00
10,COC(=O)[C@H](CCNC(=O)C(=O)Nc1ccc(-c2ncco2)cc1)NC(=O)c1ccc(Nc2nc(NC3(c4ccc(Cl)cc4)CC3)nc(OCC(F)(F)F)n2)cc1 [Compound 3326],8.00 to 11.00
11,CCOc1ccc(NC(=O)C(=O)NCC[C@H](NC(=O)c2ccc(Nc3nc(NC4(c5ccc(Cl)cc5)CC4)nc(OCC(F)(F)F)n3)cc2)C(=O)OC)cc1 [Compound 3327],8.00 to 11.00
12,COC(=O)[C@H](CCNC(=O)C(=O)Nc1ccc(C(C)(C)C)cc1)NC(=O)c1ccc(Nc2nc(NC3(c4ccc(Cl)cc4)CC3)nc(OCC(F)(F)F)n2)cc1 [Compound 3329],8.00 to 11.00
13,CCc1ccc(NC(=O)C(=O)NCC[C@H](NC(=O)c2ccc(Nc3nc(NC4(c5ccc(Cl)cc5)CC4)nc(OCC(F)(F)F)n3)cc2)C(=O)OC)cc1 [Compound 3330],8.00 to 11.00
14,COC(=O)[C@H](CCNC(=O)C(=O)Nc1ccc(OC(F)(F)F)cc1)NC(=O)c1ccc(Nc2nc(NC3(c4ccc(Cl)cc4)CC3)nc(OCC(F)(F)F)n2)cc1 [Compound 3331],8.00 to 11.00
15,COC(=O)[C@H](CCNC(=O)C(=O)Nc1ccc(OC(F)F)cc1)NC(=O)c1ccc(Nc2nc(NC3(c4ccc(Cl)cc4)CC3)nc(OCC(F)(F)F)n2)cc1 [Compound 3332],8.00 to 11.00
16,COc1ccc(C2(Nc3nc(Nc4ccc(C(=O)NCC(C)(C)CNC(=O)C(N)=O)cc4)nc(OCC(F)(F)F)n3)CC2)cc1Cl [Compound 3333],8.00 to 11.00
17,Cc1cc(NC(=O)C(=O)NCC(C)CNC(=O)c2ccc(Nc3nc(NC4(c5ccc(Cl)cc5)CC4)nc(OCC(F)(F)F)n3)cc2)no1 (stereo not shown) [Compound 3334],8.00 to 11.00
18,CC(CNC(=O)C(=O)Nc1ccc(F)cc1)CNC(=O)c1ccc(Nc2nc(NC3(c4ccc(Cl)cc4)CC3)nc(OCC(F)(F)F)n2)cc1 (stereo not shown) [Compound 3335],8.00 to 11.00
19,CC1CC(=O)c2ccc(NC(=O)C(=O)NCC(C)(C)CNC(=O)c3ccc(Nc4nc(NC5(c6ccc(Cl)cc6)CC5)nc(OCC(F)(F)F)n4)cc3)cc2O1 (stereo not shown) [Compound 3336],8.00 to 11.00
20,CC(C)(CNC(=O)C(=O)Nc1ccc2cc[nH]c2c1)CNC(=O)c1ccc(Nc2nc(NC3(c4ccc(Cl)cc4)CC3)nc(OCC(F)(F)F)n2)cc1 [Compound 3337],8.00 to 11.00
21,CC(C)(CNC(=O)C(=O)Nc1ccc2[nH]ccc2c1)CNC(=O)c1ccc(Nc2nc(NC3(c4ccc(Cl)cc4)CC3)nc(OCC(F)(F)F)n2)cc1 [Compound 3338],8.00 to 11.00
22,Cc1noc2ccc(NC(=O)C(=O)NCC(C)(C)CNC(=O)c3ccc(Nc4nc(NC5(c6ccc(Cl)cc6)CC5)nc(OCC(F)(F)F)n4)cc3)cc12 [Compound 3339],8.00 to 11.00
23,CC(C)(CNC(=O)C(=O)Nc1ccc2ncsc2c1)CNC(=O)c1ccc(Nc2nc(NC3(c4ccc(Cl)cc4)CC3)nc(OCC(F)(F)F)n2)cc1 [Compound 3340],8.00 to 11.00
24,Cn1cnc2ccc(NC(=O)C(=O)NCC(C)(C)CNC(=O)c3ccc(Nc4nc(NC5(c6ccc(Cl)cc6)CC5)nc(OCC(F)(F)F)n4)cc3)cc21 [Compound 3341],8.00 to 11.00
25,NC(=O)C(=O)NCCCNC(=O)c1ccc(Nc2nc(NC3(c4ccc(Cl)cc4)CC3)nc(OCC(F)(F)F)n2)cc1 [Compound 3342],8.00 to 11.00
26,Cc1cc(NC(=O)C(=O)NCCCNC(=O)c2ccc(Nc3nc(NC4(c5ccc(Cl)cc5)CC4)nc(OCC(F)(F)F)n3)cc2)no1 [Compound 3343],8.00 to 11.00

row,Structure (SMILES),pEC50
1,CC(C)(CNC(=O)C(=O)Nc1cccc2c1-c1ccccc1C2=O)CNC(=O)c1ccc(Nc2nc(NC3(c4ccc(Cl)cc4)CC3)nc(OCC(F)(F)F)n2)cc1 [Compound 3344],8.00 to 11.00
2,CC(CNC(=O)C(N)=O)CNC(=O)c1ccc(Nc2nc(NC3(c4ccc(Cl)cc4)CC3)nc(OCC(F)(F)F)n2)cc1 (stereo not shown) [Compound 3345],8.00 to 11.00
3,CC(CNC(=O)C(=O)NCc1ccc(F)cc1)CNC(=O)c1ccc(Nc2nc(NC3(c4ccc(Cl)cc4)CC3)nc(OCC(F)(F)F)n2)cc1 (stereo not shown) [Compound 3346],8.00 to 11.00
4,CC(C)(CNC(=O)C(=O)Nc1ccc2ccccc2c1)CNC(=O)c1ccc(Nc2nc(NC3(c4ccc(Cl)cc4)CC3)nc(OCC(F)(F)F)n2)cc1 [Compound 3347],8.00 to 11.00
5,CC(CNC(=O)C(=O)Nc1cccc(F)c1)CNC(=O)c1ccc(Nc2nc(NC3(c4ccc(Cl)cc4)CC3)nc(OCC(F)(F)F)n2)cc1 (stereo not shown) [Compound 3348],8.00 to 11.00
6,O=C(NCCCNC(=O)c1ccc(Nc2nc(NC3(c4ccc(Cl)cc4)CC3)nc(OCC(F)(F)F)n2)cc1)C(=O)Nc1cccc(F)c1 [Compound 3349],8.00 to 11.00
7,CC(C)(CNC(=O)C(=O)Nc1nc2c(s1)CCCC2)CNC(=O)c1ccc(Nc2nc(NC3(c4ccc(Cl)cc4)CC3)nc(OCC(F)(F)F)n2)cc1 [Compound 3350],8.00 to 11.00
8,COc1ccc(C2(Nc3nc(Nc4ccc(C(=O)NCC(C)(C)CNC(=O)C(N)=O)cc4)nc(OCC(F)(F)F)n3)CC2)cc1C(F)(F)F [Compound 3351],8.00 to 11.00
9,CC(C)(CNC(=O)C(=O)Nc1ccc2[nH]nnc2c1)CNC(=O)c1ccc(Nc2nc(NC3(c4ccc(Cl)cc4)CC3)nc(OCC(F)(F)F)n2)cc1 [Compound 3352],8.00 to 11.00
10,Cc1ccc(NC(=O)C(=O)NCC(C)CNC(=O)c2ccc(Nc3nc(NC4(c5ccc(Cl)cc5)CC4)nc(OCC(F)(F)F)n3)cc2)cc1 (stereo not shown) [Compound 3353],8.00 to 11.00
11,Cc1cc2cccc(NC(=O)C(=O)NCC(C)(C)CNC(=O)c3ccc(Nc4nc(NC5(c6ccc(Cl)cc6)CC5)nc(OCC(F)(F)F)n4)cc3)c2o1 [Compound 3354],8.00 to 11.00
12,CC(C)(CNC(=O)C(=O)Nc1ccc2c(c1)CCC2=O)CNC(=O)c1ccc(Nc2nc(NC3(c4ccc(Cl)cc4)CC3)nc(OCC(F)(F)F)n2)cc1 [Compound 3355],8.00 to 11.00
13,CC(C)(CNC(=O)C(=O)Nc1cccc2c1Cc1ccccc1-2)CNC(=O)c1ccc(Nc2nc(NC3(c4ccc(Cl)cc4)CC3)nc(OCC(F)(F)F)n2)cc1 [Compound 3356],8.00 to 11.00
14,O=C(NCCCNC(=O)c1ccc(Nc2nc(NC3(c4ccc(Cl)cc4)CC3)nc(OCC(F)(F)F)n2)cc1)C(=O)NCc1ccc(F)cc1 [Compound 3357],8.00 to 11.00
15,Cc1ccc(NC(=O)C(=O)NCCCNC(=O)c2ccc(Nc3nc(NC4(c5ccc(Cl)cc5)CC4)nc(OCC(F)(F)F)n3)cc2)cc1 [Compound 3358],8.00 to 11.00
16,CC(C)(CNC(=O)C(=O)Nc1ccc2c(c1)COC2=O)CNC(=O)c1ccc(Nc2nc(NC3(c4ccc(Cl)cc4)CC3)nc(OCC(F)(F)F)n2)cc1 [Compound 3359],8.00 to 11.00
17,O=C(NCCCNC(=O)c1ccc(Nc2nc(NC3(c4ccc(Cl)cc4)CC3)nc(OCC(F)(F)F)n2)cc1)C(=O)Nc1ccc(F)cc1 [Compound 3360],8.00 to 11.00
18,CC(C)(CNC(=O)C(=O)Nc1ccc(CCCC(=O)O)cc1)CNC(=O)c1ccc(Nc2nc(NC3(c4ccc(Cl)cc4)CC3)nc(OCC(F)(F)F)n2)cc1 [Compound 3361],8.00 to 11.00
19,C=Cc1ccccc1NC(=O)C(=O)NCC(C)(C)CNC(=O)c1ccc(Nc2nc(NC3(c4ccc(Cl)cc4)CC3)nc(OCC(F)(F)F)n2)cc1 [Compound 3362],8.00 to 11.00
20,O=C(CNC(=O)C(=O)Nc1cccc(F)c1)CNC(=O)c1ccc(Nc2nc(NC3(c4ccc(Cl)cc4)CC3)nc(OCC(F)(F)F)n2)cc1 [Compound 3363],8.00 to 11.00
21,Cc1cc(NC(=O)C(=O)NCC(O)CNC(=O)c2ccc(Nc3nc(NC4(c5ccc(Cl)cc5)CC4)nc(OCC(F)(F)F)n3)cc2)no1 (stereo not shown) [Compound 3364],8.00 to 11.00
22,O=C(NCC(O)CNC(=O)c1ccc(Nc2nc(NC3(c4ccc(Cl)cc4)CC3)nc(OCC(F)(F)F)n2)cc1)C(=O)Nc1ccc(F)cc1 (stereo not shown) [Compound 3365],8.00 to 11.00
23,COc1ncccc1NC(=O)C(=O)NCC(C)(C)CNC(=O)c1ccc(Nc2nc(NC3(c4ccc(Cl)cc4)CC3)nc(OCC(F)(F)F)n2)cc1 [Compound 3366],8.00 to 11.00
24,Cc1ccc(NC(=O)C(=O)NCC(O)CNC(=O)c2ccc(Nc3nc(NC4(c5ccc(Cl)cc5)CC4)nc(OCC(F)(F)F)n3)cc2)cc1 (stereo not shown) [Compound 3367],8.00 to 11.00
25,O=C(NCc1ccc(F)cc1)C(=O)NCC(O)CNC(=O)c1ccc(Nc2nc(NC3(c4ccc(Cl)cc4)CC3)nc(OCC(F)(F)F)n2)cc1 (stereo not shown) [Compound 3368],8.00 to 11.00
